Experimental data taken from patent US20260373164A1, “4(RS)-4-F4-NEUROPROSTANE DERIVATIVES (4-F4T-NEUROP) AND THEIR USE IN TREATING VENTILATOR INDUCED DIAPHRAGMATIC DYSFUNCTION AND OTHER DISEASES” (INSTITUT NATIONAL DE LA SANTÉ ET DE LA RECHERCHE MÉDICALE, priority 2022, published 2026).
Entries after “also recorded” stand apart in the source; their conditions may differ.

Columns and labels:
[1] = system: ventricular myocytes (type 2 ryanodine receptor); assay: Anti-arrhythmic properties in isolated ventricular myocytes (calcium transients and cell contraction, IonOptix); assay type: cell-based, murine; details: 10 nM isoproterenol; for anti-arrhythmic properties (ryanodine dependent arrhythmic cells): VB574 10 nM, 100 nM or 1 μM, compound IV 1 μM, 1 Hz stimulation
Experimental: Compounds 20,21,22-trinor-4(RS)-4-F4t-NeuroP (compound of Formula III, VB574) and monohydroxylated derivative of 4-F4t-NeuroP (Compound IV) were evaluated for their anti-arrhythmic properties. Calcium transients and cell contraction was measured by the photometric system ionOptix®.
The photometric system IonOptix® can provide real-time, simultaneous acquisition of fluorescence photometry with sarcomere length measurements. For the study of isolated myocytes, the system includes a pacemaker that offers full control of the stimulation pulse duration, the frequency and the voltage. Thus, the photometric system IonOptix® puts in correlation the calcium transients and the shortening of the electrically stimulated myocytes (1 Hz, 20 V, FIG. 7). Calcium was studied by the use of a ratiometric fluorescent calcium probe (indo-1-AM, excitation wavelength 360±10 nm, emission wavelength at 405±10 nm and 485±10 nm).
To measure the intracellular calcium, the first step was to bring ventricular myocytes load into contact with an amount of indo-1-AM. To make it liposoluble, indo-1 was esterified on its carboxylic functions to give indo-1-AM. Once present in the cell, esterases allow the release of Indo-1 carboxylic functions enabling it to bind to the intracellular calcium. The incorporation time was predetermined to 30 minutes. This time was chosen following experiments using different times of incubation and 30 minutes was the time giving a good ratio/noise ratio and no obvious perturbation of cellular calcium homeostasis. The incubation time of the probe is critical because too low load generates a weak signal while excessive exposure will excessively increase the buffering capacity of the cytoplasm for calcium.
Once loaded and the cells arranged on the measuring system by means of a tank containing Tyrode salt solution (450 μL), the probe was excited by a xenon lamp at a wavelength of 360 nm. Through an optical wavelength filter, the apparatus collects the fluorescence emitted from the Indo-1 at two different wavelengths: 405±10 nm and 485±10 nm. The first wavelength represents the fluorescence of the probe bound to calcium and the second wavelength represents the fluorescence of the free probe. The ratio of these two wavelengths reflects the concentration of intracellular calcium. It is thus possible to observe calcium transients in ventricular myocytes systole but also to observe the diastolic calcium when the stimulation is stopped.
To measure the contraction, striation of cardiac cells due to the presence of sarcomeres was used. […] The recorded signal is similar to a sine function. […]
Thus, to evaluate the potential RyR stabilizing effect of the 4-F4T-neuroprostane derivatives (compounds III and IV), the compounds were applied, and the percentage of arrhythmic cells was measured.

RyR2 = details: previously reported (ref. 21); cited from earlier work

## CC/C=C\C/C=C\C[C@@H]1[C@H](/C=C/C(O)CCC(=O)O)[C@@H](O)C[C@H]1O (mixture of isomers) [compound III, (E)-6-((1S,2R,3R,5S)-3,5-dihydroxy-2-((2Z,5Z)-octa-2,5-dien-1-yl)cyclopentyl)-4-hydroxyhex-5-enoic Acid]
[1]
  anti-arrhythmic properties (ryanodine dependent arrhythmic cells): show anti-arrhythmic properties indicative of an interaction with the RyR

## CC/C=C\C/C=C\C/C=C\C/C=C\C/C=C\C/C=C\CCC(=O)O [DHA, docosahaenoic acid]
RyR2
  cardiac anti-arrhythmic effect, RyR2 stabilization: could exert a cardiac anti-arrhythmic effect due to a stabilization of the cardiac isoform of ryanodine receptor, RyR2

## CC/C=C\C/C=C\C/C=C\C[C@H]1CC[C@H](O)[C@H]1/C=C/C(O)CCC(=O)O (some centres unmarked) [compound IV]
[1]
  anti-arrhythmic properties (ryanodine dependent arrhythmic cells): show anti-arrhythmic properties indicative of an interaction with the RyR

## CC(C)NCC(O)c1ccc(O)c(O)c1 (centres unmarked) [isoproterenol]
[1]
  amplitude of contractions: increase in the amplitude of contractions
  extrasystole ventricular contraction (ESV): promotes the development of ESV; also recorded: promote the development of ExtraSystole Ventricular contraction (ESV)
